Test results taken from patent publication EP3981864A1, “DETERGENT COMPOSITION” (priority 2020, dated 2022).

How the values were obtained:
[1] = system: Citrus sinensis αDOX (SEQ ID NO: 11), fatty acid alpha-dioxygenase, A0A067FHE4, N-terminal His-tag variant SEQ ID NO: 269 (comparative); assay: Alpha-dioxygenase activity assay (oxygen consumption, TON); assay type: biochemical; conditions: fatty acid 100 µM, enzyme 6 ppm, 50 mM HEPES pH 9.0, 37°C; initial rate of oxygen consumption / enzyme concentration
From the text: (§1) Citrus sinensis αDOX (SEQ ID NO: 11) is a fatty acid alpha-dioxygenase that converts fatty acids into the corresponding 2-hydroperoxy fatty acids and is included as a comparative example of the present invention. A codon optimized gene (SEQ ID NO: 268) encoding for an alpha-dioxygenase variant (SEQ ID NO: 269), including an N-terminal amino acid sequence containing a His-tag was designed and synthesized by Genscript. After gene synthesis, the protein was expressed and purified. In brief, the complete synthetic gene sequence was subcloned into a pET30a vector using the NdeI/HindIII cloning sites. For heterologous expression, Escherichia coli BL21 (DE3) cells were transformed with the recombinant plasmid and a single colony was inoculated into LB medium containing kanamycin (50 mg/L). A pre-starter culture was then inoculated into flasks containing Magic Media (Thermo Fisher, Catalog # K6803) supplemented with kanamycin (50 mg/L) and incubated at 16 °C for 72 h. At an OD600nm = 0.5 - 1.0, 5-aminolevulinic acid (final concentration 0.5 mM) was added. Cells were harvested by centrifugation at 5000 rpm and 4°C and the pellet was lysed using a bacterial cell lysis buffer (B-PER - Themo Fisher, Waltham, MA). After centrifugation, the supernatant was collected, and the protein was purified by one-step purification using HisPur™ Ni-NTA Spin Columns (Thermo Scientific, Catalog # 88226) and standard protocols known in the art. The protein was concentrated using a 10 kDa MW cutoff Amicon Ultra centrifugal filter unit (Millipore Sigma, Catalog# UFC901024), followed by desalting using a disposable PD-10 desalting column (GE Healthcare Life Sciences, Catalog# 17085101) and a buffer containing 50 mM Tris-HCl, 500 mM NaCl, and 10% Glycerol at pH 8.0. […]
(§2) Reactions with alpha-dioxygenases were performed as follows. […] The reaction was incubated for up to 10 minutes at 37°C with 200 rpm agitation and the conversion was monitored using an oxygen sensor. The TON (in s-1) were calculated as the ratio between the initial rate of oxygen consumption (in µM/s) and the concentration of enzyme (in µM). […]

[2] = target: T1, Nicotiana tabacum αDOX (SEQ ID NO: 6), fatty acid alpha-dioxygenase, 082031, N-terminal His-tag variant SEQ ID NO: 259 (Nicotiana tabacum, UniProt A0A1S3ZX38); assay: as above; assay type: biochemical; conditions: fatty acid 100 µM, enzyme 6 ppm, 50 mM HEPES pH 9.0, 37°C; initial rate of oxygen consumption / enzyme concentration
T1 construct: made in house; host or cells: Escherichia coli BL21 (DE3), pET30a
T1 sequence (A0A1S3ZX38 1-643): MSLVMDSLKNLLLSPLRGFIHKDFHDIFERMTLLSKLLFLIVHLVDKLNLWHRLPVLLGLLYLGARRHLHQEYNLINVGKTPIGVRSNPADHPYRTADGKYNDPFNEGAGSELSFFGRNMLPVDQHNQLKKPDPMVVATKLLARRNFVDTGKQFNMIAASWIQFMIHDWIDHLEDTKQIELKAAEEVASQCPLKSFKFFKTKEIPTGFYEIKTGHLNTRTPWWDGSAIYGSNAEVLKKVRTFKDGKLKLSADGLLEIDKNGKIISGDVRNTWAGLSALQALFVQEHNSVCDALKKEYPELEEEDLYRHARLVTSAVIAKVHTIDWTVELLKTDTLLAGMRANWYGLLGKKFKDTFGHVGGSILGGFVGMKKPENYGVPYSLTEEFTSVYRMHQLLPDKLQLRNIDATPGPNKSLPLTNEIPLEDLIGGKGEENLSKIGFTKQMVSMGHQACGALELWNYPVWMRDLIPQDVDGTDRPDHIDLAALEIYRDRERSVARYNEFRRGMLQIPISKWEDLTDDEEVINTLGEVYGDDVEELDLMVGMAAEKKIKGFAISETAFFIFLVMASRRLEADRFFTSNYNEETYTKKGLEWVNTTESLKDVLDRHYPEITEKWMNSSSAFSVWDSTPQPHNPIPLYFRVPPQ
From the text: as §1, with “Nicotiana tabacum” for “Citrus sinensis”, “6)” for “11)”, “an” for “a comparative”, “258)” for “268)”, “259),” for “269),”
as §2

CCCCCCCC/C=C\CCCCCCCC(=O)O [Oleic Acid]
Oleic Acid, TON [1]: 0.00 s⁻¹
Oleic Acid, TON [2]: 0.78 s⁻¹

CCCCCCCCCCCCCCCC(=O)O [Palmitic Acid]
Palmitic Acid, TON [1]: 0.29 s⁻¹
Palmitic Acid, TON [2]: 3.07 s⁻¹

CCCCCCCCCCCCCCCCCC(=O)O [Stearic Acid]
Stearic Acid, TON [1]: 0.00 s⁻¹
Stearic Acid, TON [2]: 2.66 s⁻¹
